Measurements as given in patent US8258159B2, “Inhibitors of the α2β1/GPIa-IIa integrin” (The Trustees Of The University Of Pennsylvania, priority 2005, dated 2012).
Where two headings read alike, the source gives them in different places.

How the values were obtained:
Assay type in all cases: cell-based
α1β1 = biological target: T1, α1β1 (Homo sapiens, UniProt P05556+P56199); experiment: Cell adhesion assay to assess specificity: α1-transfected K562 cells on collagen IV; conditions: read-out: % inhibition at 3 μM, α1β1
T1 construct: Marcinkiewicz (Temple University, Philadelphia, Pa.); host or cells: K562
T1 sequence (P56199 29-1179): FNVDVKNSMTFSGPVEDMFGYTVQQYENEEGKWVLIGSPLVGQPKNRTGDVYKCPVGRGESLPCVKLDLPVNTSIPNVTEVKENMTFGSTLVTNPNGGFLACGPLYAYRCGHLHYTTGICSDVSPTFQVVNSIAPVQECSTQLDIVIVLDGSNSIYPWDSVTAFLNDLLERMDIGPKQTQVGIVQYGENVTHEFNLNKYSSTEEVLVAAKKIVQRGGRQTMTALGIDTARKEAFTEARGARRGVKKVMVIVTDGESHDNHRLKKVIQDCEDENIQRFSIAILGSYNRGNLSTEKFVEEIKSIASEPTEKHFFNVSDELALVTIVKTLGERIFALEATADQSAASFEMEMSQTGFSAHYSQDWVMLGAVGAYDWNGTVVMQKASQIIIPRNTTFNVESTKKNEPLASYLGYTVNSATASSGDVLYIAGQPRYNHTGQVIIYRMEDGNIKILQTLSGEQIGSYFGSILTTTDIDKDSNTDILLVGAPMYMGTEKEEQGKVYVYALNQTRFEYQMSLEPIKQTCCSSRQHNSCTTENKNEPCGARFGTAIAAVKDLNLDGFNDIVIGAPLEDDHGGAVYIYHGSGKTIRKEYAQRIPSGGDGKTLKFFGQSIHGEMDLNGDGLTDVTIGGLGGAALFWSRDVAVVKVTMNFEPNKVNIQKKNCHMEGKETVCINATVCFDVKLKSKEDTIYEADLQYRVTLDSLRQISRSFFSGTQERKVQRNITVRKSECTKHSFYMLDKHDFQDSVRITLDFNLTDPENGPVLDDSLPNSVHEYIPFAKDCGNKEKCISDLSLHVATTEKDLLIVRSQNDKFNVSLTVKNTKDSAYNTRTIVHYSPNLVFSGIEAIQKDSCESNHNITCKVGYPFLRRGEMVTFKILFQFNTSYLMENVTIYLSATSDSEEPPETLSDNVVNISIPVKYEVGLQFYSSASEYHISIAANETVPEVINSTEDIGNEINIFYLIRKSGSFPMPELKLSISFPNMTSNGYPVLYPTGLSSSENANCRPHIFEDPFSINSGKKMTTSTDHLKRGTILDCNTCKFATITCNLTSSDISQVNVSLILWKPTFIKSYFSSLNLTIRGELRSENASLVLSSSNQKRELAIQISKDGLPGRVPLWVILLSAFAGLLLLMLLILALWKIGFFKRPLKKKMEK
T1 sequence (P05556 21-798): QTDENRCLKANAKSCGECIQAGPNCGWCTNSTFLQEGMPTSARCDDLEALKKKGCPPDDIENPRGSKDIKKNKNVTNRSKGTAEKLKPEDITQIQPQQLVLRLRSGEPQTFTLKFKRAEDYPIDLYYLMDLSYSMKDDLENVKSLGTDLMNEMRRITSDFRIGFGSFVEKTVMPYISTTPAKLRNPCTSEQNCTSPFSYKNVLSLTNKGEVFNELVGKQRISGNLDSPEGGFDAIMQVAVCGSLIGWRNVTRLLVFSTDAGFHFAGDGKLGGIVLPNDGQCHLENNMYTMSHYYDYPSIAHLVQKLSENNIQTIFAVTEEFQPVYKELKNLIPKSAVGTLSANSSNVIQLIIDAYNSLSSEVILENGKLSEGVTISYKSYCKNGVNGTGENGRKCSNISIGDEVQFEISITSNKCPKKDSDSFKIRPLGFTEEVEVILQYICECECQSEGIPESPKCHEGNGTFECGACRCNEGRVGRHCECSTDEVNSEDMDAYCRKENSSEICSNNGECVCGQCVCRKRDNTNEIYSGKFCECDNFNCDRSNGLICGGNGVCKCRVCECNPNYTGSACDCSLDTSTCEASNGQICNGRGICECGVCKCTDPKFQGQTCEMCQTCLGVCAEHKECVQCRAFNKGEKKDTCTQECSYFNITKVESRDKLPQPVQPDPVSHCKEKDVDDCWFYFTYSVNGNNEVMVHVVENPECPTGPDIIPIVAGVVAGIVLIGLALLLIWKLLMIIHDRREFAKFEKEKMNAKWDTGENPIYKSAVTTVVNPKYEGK
Protocol: (§1) The ligands (3 μg/ml of collagen IV for […] or 3 μg/ml of collagen I for α2β1) for the test designed to assess the specificity of representative embodiments of the instant compounds for the α2β1 integrin were immobilized on 96-well flat microtiter plates (100 μl for each well) in PBS buffer solution overnight at 4° C. In the case of VCAM (3 μg/ml, for α4β1) and fibronectin (10 μg/ml, for α5β1), 20 mM acetic acid was used instead of PBS buffer solution. As those skilled in the art will recognize, VCAM is a known endothelial ligand for α4β1/VLA-4, and fibronectin is a known ligand for […]. In the case of α1β1 and α2β1, blocking was performed with 1% BSA in HBSS buffer solution containing Mg^2+ (but without Ca^2+) for 1 hour. In the case of α4β1 and α5β1, 1% BSA in HyQ HBSS buffer solution containing Ca^2+ and Mg^2+ was used. […] After centrifugation and washing with buffer solution containing 1% BSA, cells were re-suspended in same buffer solution (1×10^6 cells/ml) and incubated in the presence of a different concentration of inhibitors at room temperature for 15 minutes. Cells were added to the wells (100 μl/well) and incubated at 37° C. for 30 minutes. Unbound cells were washed out and bound cells were lysed by the addition of 0.5% Triton X-100.
(§2) The K562 cells expressing α5β1 integrin, Jurkat cells expressing α4β1, and K562 cells transfected with α1 and α2 integrins were provided by Dr. C. Marcinkiewicz (Temple University, Philadelphia, Pa.).
(§3) Plates were read using a Cytofluor 2350 fluorescence plate reader (Millipore, Bedford, Mass.) with a 485 nm (excitation) and 530 nm (emission).

α2β1 = biological target: T2, α2β1 (Homo sapiens, UniProt P05556+P17301); experiment: Cell adhesion assay to assess specificity: α2-transfected K562 cells on collagen I
T2 construct: Marcinkiewicz (Temple University, Philadelphia, Pa.); host or cells: K562
T2 sequence (P17301 30-1181): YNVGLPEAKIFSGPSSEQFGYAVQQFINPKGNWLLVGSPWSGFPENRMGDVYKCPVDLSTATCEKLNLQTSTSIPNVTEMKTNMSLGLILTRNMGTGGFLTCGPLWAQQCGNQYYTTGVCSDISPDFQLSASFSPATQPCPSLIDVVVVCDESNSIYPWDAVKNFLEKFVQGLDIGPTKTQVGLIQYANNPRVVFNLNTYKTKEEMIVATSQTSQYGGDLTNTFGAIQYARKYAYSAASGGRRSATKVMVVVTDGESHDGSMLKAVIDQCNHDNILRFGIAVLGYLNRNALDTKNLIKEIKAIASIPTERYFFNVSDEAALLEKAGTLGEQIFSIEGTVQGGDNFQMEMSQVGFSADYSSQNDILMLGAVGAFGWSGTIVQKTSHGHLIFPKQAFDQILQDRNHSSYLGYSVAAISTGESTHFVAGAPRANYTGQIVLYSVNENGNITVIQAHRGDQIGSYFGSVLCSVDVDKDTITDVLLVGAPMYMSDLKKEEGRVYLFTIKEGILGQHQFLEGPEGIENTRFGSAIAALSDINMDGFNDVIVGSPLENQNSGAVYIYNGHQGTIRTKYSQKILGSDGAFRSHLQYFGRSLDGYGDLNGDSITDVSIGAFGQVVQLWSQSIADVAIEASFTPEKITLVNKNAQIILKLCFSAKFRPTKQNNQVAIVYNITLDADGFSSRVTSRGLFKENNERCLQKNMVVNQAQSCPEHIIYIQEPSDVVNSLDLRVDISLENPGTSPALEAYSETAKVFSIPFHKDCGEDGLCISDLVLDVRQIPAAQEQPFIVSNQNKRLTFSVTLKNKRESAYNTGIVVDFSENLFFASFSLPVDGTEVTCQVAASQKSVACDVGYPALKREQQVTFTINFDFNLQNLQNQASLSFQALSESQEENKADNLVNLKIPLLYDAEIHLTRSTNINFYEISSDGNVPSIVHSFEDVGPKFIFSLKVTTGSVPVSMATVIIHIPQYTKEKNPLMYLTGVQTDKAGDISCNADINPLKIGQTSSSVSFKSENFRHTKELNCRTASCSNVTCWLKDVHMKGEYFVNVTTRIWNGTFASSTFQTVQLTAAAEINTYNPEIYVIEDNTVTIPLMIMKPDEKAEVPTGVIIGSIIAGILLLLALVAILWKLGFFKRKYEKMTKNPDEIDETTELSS
T2 sequence (P05556 21-798): as the sequence (P05556 21-798) above
Protocol: as §1, §2, §3

α4β1 = biological target: T3, α4β1 (Homo sapiens, UniProt P05556+P13612); experiment: Cell adhesion assay to assess specificity: Jurkat cells on VCAM
T3 construct: Jurkat cells expressing α4β1; Marcinkiewicz (Temple University, Philadelphia, Pa.); host or cells: Jurkat
T3 sequence (P13612 34-1032): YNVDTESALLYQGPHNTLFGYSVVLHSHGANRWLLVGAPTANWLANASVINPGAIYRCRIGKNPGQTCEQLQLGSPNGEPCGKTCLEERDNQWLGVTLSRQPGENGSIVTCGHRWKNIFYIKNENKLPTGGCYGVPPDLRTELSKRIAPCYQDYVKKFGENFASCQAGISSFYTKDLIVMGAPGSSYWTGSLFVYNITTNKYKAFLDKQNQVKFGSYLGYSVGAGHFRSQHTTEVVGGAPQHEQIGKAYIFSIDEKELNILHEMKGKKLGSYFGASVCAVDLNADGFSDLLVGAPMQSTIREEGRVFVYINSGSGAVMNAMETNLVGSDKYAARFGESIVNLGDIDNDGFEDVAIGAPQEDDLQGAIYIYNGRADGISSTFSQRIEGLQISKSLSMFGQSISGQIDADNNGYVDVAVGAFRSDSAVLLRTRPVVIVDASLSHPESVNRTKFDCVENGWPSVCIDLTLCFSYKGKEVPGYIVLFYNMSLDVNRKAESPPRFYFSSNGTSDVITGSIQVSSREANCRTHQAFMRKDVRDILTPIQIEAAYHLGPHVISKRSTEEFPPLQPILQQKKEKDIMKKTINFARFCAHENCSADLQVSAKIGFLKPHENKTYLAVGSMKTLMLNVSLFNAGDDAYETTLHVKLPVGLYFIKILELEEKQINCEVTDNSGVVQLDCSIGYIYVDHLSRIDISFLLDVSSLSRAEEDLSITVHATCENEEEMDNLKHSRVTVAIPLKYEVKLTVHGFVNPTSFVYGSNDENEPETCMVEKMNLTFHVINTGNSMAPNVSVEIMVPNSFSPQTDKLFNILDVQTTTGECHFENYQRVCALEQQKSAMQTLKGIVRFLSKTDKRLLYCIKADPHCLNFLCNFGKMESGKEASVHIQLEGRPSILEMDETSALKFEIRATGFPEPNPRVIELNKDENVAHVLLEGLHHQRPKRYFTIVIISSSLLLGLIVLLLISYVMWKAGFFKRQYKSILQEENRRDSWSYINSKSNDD
T3 sequence (P05556 21-798): as the sequence (P05556 21-798) above
Protocol: as §1, §2, §3

α2β1 integrin = biological target: T4, α2β1 integrin (Homo sapiens, UniProt P05556+P17301); experiment: Platelet adhesion assay (human platelet adhesion to type I collagen)
T4 construct: endogenous in cells; host or cells: gel-filtered human platelets of a single donor
T4 sequence (P17301 30-1181): as the sequence (P17301 30-1181) above
T4 sequence (P05556 21-798): as the sequence (P05556 21-798) above
Protocol: The inhibitory strength of the compounds of the present disclosure was analyzed as against platelet adhesion to type I collagen. Ninety-six well flat bottom microtiter plates (Immulon 2, Dynatech Laboratories, Chantilly, Va.) were coated with collagen, purified human fibrinogen, or bovine serum albumin, each dissolved in 50 mM NaHCO3 buffer, pH 8.0, containing 150 mM NaCl as previously described. See Bennett J S, Chan C, Vilaire G, Mousa S A, DeGrado W F. Agonist-Activated αvβ3 on Platelets and Lymphocytes Binds to the Matrix Protein Osteopontin. J Biol Chem. 272, 8137-814) (1997). Unoccupied protein binding sites on the wells were blocked with 5 mg/ml bovine serum albumin dissolved in the same buffer. Human platelets were isolated from blood anticoagulated with 0.1 volume 3.8% sodium citrate by gel-filtration using a 4 mM HEPES buffer, pH 7.4, containing 135 mM NaCl, 2.7 mM KCl, 5.6 mM glucose, 3.3 mM NaH2PO4, 0.35 mg/ml bovine serum albumin and various concentrations of CaCl2 or MgCl2 according to the experiment. One hundred μl aliquots of the gel-filtered platelet suspension containing 1-2×10^8 platelets were added to the protein-coated wells in the absence or presence of a platelet agonist. Following an incubation for 30 min at 37° C. without agitation, the plates were washed 4 times with the Tris-buffered NaCl, containing 2 mM MgCl2, pH 7.4, and the number of adherent platelets measured using the colorimetric assay reported by Bellavite P, Andrioli G, Guzzo P, et al. A colorimetric method for the measurement of platelet adhesion in microtiter plates. Anal Biochem. 216, 444-450 (1994). Briefly, 150 μl of a 0.1 M citrate buffer, pH 5.4, containing 5 mM p-nitrophenyl phosphate and 0.1% Triton X-100 was added to the wells after washing. After an incubation for 60 min at room temperature in the absence of ambient light, color was developed by the addition of 100 μl of 2N NaOH and, using EL800 Universal Microplate Reader (Bio-Tek Instruments, Inc., Winooski, Vt.), read in microtiter plate reader at 405 nm.
The potencies of the compounds of the present disclosure were determined by testing the ability of a range of concentrations of each compound to inhibit human platelet adhesion to soluble collagen under static conditions. Owing to the fact that soluble collagen is a specific ligand for α2β1 integrin, this is an accepted method of assessing α2β1 inhibition on platelets.
IC50 values were determined by using the platelets of a single donor. In cases where multiple assays were performed, the reported results reflect the average IC50 value derived from the separate assays.

[1] = human platelet adhesion to type I (soluble, monomeric) collagen, static conditions, single donor, read-out: IC50
[2] = platelets on collagen I, read-out: IC50 (nM), α2β1, Platelet, Collagen I

inhibition at 3 µM (α1β1)	IC50 (α2β1)	IC50 (α4β1)	IC50 (α2β1 integrin; [1])	IC50 (α2β1 integrin; [2])	SMILES
30%	177 nM	4330 nM	900 nM	–	O=C(NCc1ccccc1)NC[C@H](NC(=O)[C@@H]1CCCN1S(=O)(=O)c1ccc2ccccc2c1)C(=O)O [Compound 29]
22%	102 nM	1970 nM	23 nM	23 nM	Nc1ccc(CNC(=O)NC[C@H](NC(=O)[C@@H]2CCCN2S(=O)(=O)c2ccccc2)C(=O)O)cc1 [Compound 30, 3-[3-(4-Amino-benzyl)-ureido]-2-[(1-benzenesulfonyl-pyrrolidine-2-carbonyl)-amino]-propionic acid]
26%	89 nM	740 nM	29 nM	29 nM	Cc1cc(C)cc(S(=O)(=O)N2CCC[C@H]2C(=O)N[C@@H](CNC(=O)NCc2ccccc2)C(=O)O)c1 [Compound 31, 3-(3-Benzyl-ureido)-2-{[1-(3,5-dimethyl-benzenesulfonyl)-pyrrolidine-2-carbonyl]-amino}-propionic acid]
32%	83 nM	637 nM	17 nM	17 nM	O=C(NCc1ccccc1)NC[C@H](NC(=O)[C@@H]1CCCN1S(=O)(=O)c1cc(Cl)cc(Cl)c1)C(=O)O [Compound 48, 3-(3-Benzyl-ureido)-2-{[1-(3,5-dichloro-benzenesulfonyl)-pyrrolidine-2-carbonyl]-amino}-propionic acid]
